The test system of this data set is P. aeruginosa PAO1 biofilm. Put plainly: Biofilm prevention in MBEC plate (crystal violet). Format: cell-based, Pseudomonas aeruginosa. The following applies: 5 μM PPMO, 2 μg/mL PMBN, MHII, 20 hours; one-way ANOVA p<0.0001. The method, then:
P. aeruginosa PAO1 (5×10^5 cfu/mL) was grown in MHII media in an MBEC plate for 20 hours either alone or in the presence of 5 μM of the indicated PPMOs, PMBN alone, (RXR)4, or a scrambled PPMO. All conditions contained 2 μg/mL of PMBN unless indicated otherwise. Pegs were processed for crystal violet or visualized by microscopy at 20 hours. […] FIGS. 6B-6D: Spinning Disk confocal microscopy images of 20 hour biofilm treated with (FIG. 6B) No PPMO, (FIG. 6C) 5 μM Scr PPMO #41, (FIG. 6D) 5 μM RpsJ PPMO #14. PAO1 GFP is shown in green and biofilm is shown in red. The biofilm is stained with 200 μg/mL of Concanavalin A, Alexafluor 647 conjugate.
Pseudomonas aeruginosa Biofilm Prevention in MBEC Plate Protocol
• 1. 10 mL of MH is inoculated with a single colony and incubated at 37° C. and ˜250 rpm for about 5 hours. • 2. The sample is centrifuged for 10 minutes at ˜4000 rpm at 4° C., the supernatant is decanted and the pellet resuspended in 10 mL of 150 mM NaCl or PBS. This step is repeated to wash the pellet 3 times. • 3. The sample is resuspended in 10 mL 150 mM NaCl or PBS. • 4. The OD600 of the sample is taken and cfu/mL is calculated. (OD600 usually between 0.65-0.80). • 5. A Bacterial Working Solution (BWS) is made by inoculating 10 mL of MH to 5×10^5 cfu/mL final concentration. • 6. 2 μL/mL of 1 mg/mL stock PMBN is added to the BWS and vortexed 3 times. • 7. 1 mL of BWS is pipetted into each separate Eppendorf tube for each condition that is tested. • 8. An appropriate amount of PPMO is added to each Eppendorf tube and vortexed 3 times. • 9. Outside wells are filled with fresh MH, NaCl, or PBS to keep the outer pegs from drying out. • 10. One column of the MBEC plate is filled with 150 μL per well from each Eppendorf tube (one condition per column). • 11. Pegs are placed into the MBEC plate and the edges covered with a breathable membrane. • 12. The MBEC plate is incubated for 18-20 hours at 37° C. and 110 rpm. Day 2:
1. […] The final OD570 of the 10× dilution of solution should be approximately 0.500 absorbance. […]
2. OD reading: The OD570 for the 96-well plate from step 1e is determined. […]

For the substance “PPMO #14: RpsJ PMO GCATTTGACCT, 5′ TEG, 3′ (RXR)4XB CPP”, the “prevention of biofilm (crystal violet)” value is “statistically significant prevention of biofilm”.
